Laboratory results published in ChEMBL document CHEMBL5518158, “Recent advances in triazoles as tyrosinase inhibitors” (Eur J Med Chem, 2023).
Each block holds one molecule with its values, some of them ahead of it.

Columns and labels:
Type in all cases: protein assay
Mushroom tyrosinase [1] = target: T1, Mushroom tyrosinase (Agaricus bisporus, UniProt O42713+Q00024+C7FF04+C7FF05); test: Inhibition of mushroom tyrosinase incubated for 10 mins by spectrophotometric analysis
Mushroom tyrosinase [2] = target: T1, Mushroom tyrosinase; test: Inhibition of mushroom tyrosinase using L-tyr as substrate
Mushroom tyrosinase [3] = target: T1, Mushroom tyrosinase; test: Inhibition of mushroom tyrosinase using L-DOPA as substrate pre-treated for 20 mins followed by substrate addition measured for 15 mins by absorbance based analysis
Mushroom tyrosinase [4] = target: T1, Mushroom tyrosinase; test: Inhibition of mushroom tyrosinase using L-DOPA as substrate preincubated for 10 mins
Mushroom tyrosinase [5] = target: T1, Mushroom tyrosinase; test: Binding affinity to mushroom tyrosinase assessed as binding constant by fluorescence spectrophotometry
Mushroom tyrosinase [6] = target: T1, Mushroom tyrosinase; test: Inhibition of mushroom tyrosinase using L-tyrosine as substrate incubated for 20 mins by spectrophotometric analysis
Mushroom tyrosinase [7] = target: T1, Mushroom tyrosinase; test: Inhibition of mushroom tyrosinase using L-DOPA as substrate incubated for 20 mins spectrophotometric analysis

IC50 (Mushroom tyrosinase [1]): 0.52 µM
Structure (SMILES): O=c1cc(Cn2cc(COc3ccc([N+](=O)[O-])cc3)nn2)occ1O

Structure (SMILES): COc1ccc(C=O)cc1O [ISOVANILLIN]
IC50 (Mushroom tyrosinase [2]): > 500 µM

Structure (SMILES): Oc1ccc2c(c1)OCO2
IC50 (Mushroom tyrosinase [3]): 6.7 µM

IC50 (Mushroom tyrosinase [4]): 0.098 µM
Ki (Mushroom tyrosinase [5]): 0.018 µM
Structure (SMILES): O=C(CSc1nnc(-c2ccccc2F)n1-c1ccc(F)cc1)Nc1ccc(F)cc1

IC50 (Mushroom tyrosinase [6]): 33.33 µM
Structure (SMILES): C/C=C/c1ccc(O)c(OC)c1

Structure (SMILES): O=c1cc(Cn2cc(COc3cccc4ccccc34)nn2)occ1O
IC50 (Mushroom tyrosinase [7]): 0.06 µM

IC50 (Mushroom tyrosinase [7]): 0.3 µM
Structure (SMILES): O=c1cc(Cn2cc(COc3ccc4ccccc4c3)nn2)occ1O
